From patent publication US20220119399A1, “COMPOUNDS AND COMPOSITIONS THAT CAUSE MYCN AND/OR CMYC DEGRADATION AND METHODS OF USE THEREOF” (THE TRUSTEES OF COLUMBIA UNIVERSITY IN THE CITY OF NEW YORK, priority 2018, published 2022)

What was measured:
CK2a2 = target: T1, CK2a2 (Homo sapiens, UniProt P19784); assay: Cell-free biochemical CK2a2 kinase assay
T1 construct: purchased Reaction Biology Corporation (Malvern, Pa.)
Procedure: (§1) Cell-free biochemical kinase assays were performed at Reaction Biology Corporation (Malvern, Pa.). In brief, kinase substrates were diluted into reaction buffer containing 20 mM Hepes (pH 7.5), 10 mM MgCl2, 1 mM EGTA, 0.02% Brij35, 0.02 mg/ml BSA, 0.1 mM Na3VO4, 2 mM DTT, 1% DMSO. Purified protein (CK2a1, CK2a2, or mTOR) was added to the substrate solution and gently mixed. Test compounds were diluted from 10 mM DMSO stock solutions into the reaction buffer using an Echo550 acoustic dispenser, followed by incubation at RT for 20 min. 33P-ATP (10 μCi/μL) was added to reaction mixture, following incubation for 2 h at RT. Reactions were then spotted onto P81 ion exchange paper and kinase activity was detected by filter binding method.

[1] = Stability in mouse plasma; assay type: in vitro ADME; conditions: 4 h incubation, 20 μM
Procedure: Mouse plasma was diluted with 100 mM PBS buffer at 7.4 pH and at a 1:1 ratio, and warmed to 37° C. Test compounds were added to the plasma solution at 20 μM and incubated for the indicated time point. Reactions was quenched by aliquoting 15 μL of solution into 60 μL ice-cold acetonitrile containing an internal standard. Compounds were quantified by LC-MS, as detailed above.

mTOR = mTOR (Homo sapiens, UniProt P42345); assay: Cell-free biochemical mTOR kinase assay
Procedure: as §1

Solubility = assay type: physicochemical
MYC protein = assay: Western blot of MYC protein in SCLC lines NCI-H69 and NCI-H209; assay type: cell-based; conditions: NCI-H69 and NCI-H209, 24 h
Excerpt: Membranes were blocked using Odyssey Blocking Buffer (LI-COR) for 1 hr at room temperature. […] Primary antibodies used in these studies include: MycN (CST; 1:500 dilution), Actin (SCBT; 1:2000 dil.), cMYC (CST; 1:500 dil.), pAKT (S473; CST; 1:500 dil.), AKT (CST; 1:2000), pP70 (T389; CST; 1:1000) P70 (CST; 1:1000).

T1 sequence (P19784 whole entry): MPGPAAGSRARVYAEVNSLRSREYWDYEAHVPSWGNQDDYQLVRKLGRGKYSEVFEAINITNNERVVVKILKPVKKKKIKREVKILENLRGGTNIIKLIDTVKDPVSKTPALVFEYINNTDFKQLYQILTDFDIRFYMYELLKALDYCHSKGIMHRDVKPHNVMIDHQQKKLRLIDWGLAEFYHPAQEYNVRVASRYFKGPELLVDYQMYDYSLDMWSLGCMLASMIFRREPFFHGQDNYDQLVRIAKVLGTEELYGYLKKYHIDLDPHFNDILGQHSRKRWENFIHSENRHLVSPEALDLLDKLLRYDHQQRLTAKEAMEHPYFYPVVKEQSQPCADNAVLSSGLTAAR

Row | SMILES | CK2a2 kinase activity (CK2a2) | compound remaining in mouse plasma [1] | mTOR kinase activity (mTOR) | solubility (Solubility) | MYC protein abundance in SCLC lines (MYC protein)
1 | CC(C)=CCc1c2c(c3occ(-c4ccc(O)c(O)c4)c(=O)c3c1O)C=CC(C)(C)O2 [pomiferin] | inhibiting both isoforms equally in a concentration-dependent manner | approximately 75% | – | – | –
2 | CC1(C)C=Cc2c(c3c(c4c(=O)c(-c5ccc(O)c(O)c5)coc24)OC(C)(C)CC3)O1 [isopomiferin] | – | – | did not directly inhibit mTOR kinase activity | not soluble in aqueous buffers | suppressed MYC protein in both SCLC lines
